Patent US6706470B2, “Gene switches” (priority 1999, dated 2004)
Starred links: 1 amine or outer side, 2 acyl side, 3 side chain; linkers in the order of their positions; H or OH if unused. Positions of bridges follow the written chain, without caps; N, C: chain ends. Non-standard residues stand in square brackets, D forms with d. Residues, ends and D or L forms follow the SMILES beside them. Chains are numbered I, II in the order given. Actinocin(9to1) = Cc1c2oc3c(C)ccc(C(=O)[*:1])c3nc-2c(C(=O)[*:2])c(N)c1=O; NMeV = CN[C@H](C(=O)O)C(C)C; Sar = CNCC(=O)O

How the values were obtained:
DNA target AGCTTGGCG = assay: Dissociation of zinc finger phage from its DNA target by actinomycin D; type: binding
Procedure: (§1) This example describes phage that bound DNA targets with higher affinity in the absence of ligand. These phage were isolated using either: (a) the same method as in example 1.1, or (b) by selection in the absence of small molecule and phage elution from DNA using a small molecule.
(§2) Phage selection is over 4 rounds. Binding reactions contain 10 pmol biotinylated DNA site immobilised on 50 mg streptavidin coated beads (Dynal) and a 1 ml solution of zinc finger phage library (as described in 1.1) Reactions were incubated for 1 h on a rolling platform. After this time, beads were washed 20 times as described in 1.1 and finally phage were eluted from the beads over 5 minutes using a solution containg ligand (10 μM Distamycin A, or 1 μM Actinomycin D in PBS/Zn).
The actinomycin D sensitive clone was selected with the DNA target AGCTTGGCG and its helices were sequenced as: […]

[1] = tested on: CAT reporter gene downstream of the sequence AAAAAAGGCG; assay: Transient transfection CAT reporter assay; type: cell-based; conditions: in the presence of Distamycin A; zinc finger-HSV VP16 fusion cotransfected
DNA sequence AAAAAGGCG = assay: Phage ELISA: zinc finger phage binding to DNA with and without distamycin A; conditions: DNA concentration constant at 2 nM
[2] = tested on: DNA target AAAAAGCGGAAAAA; assay: Dissociation of zinc finger phage from its DNA target by distamycin A; type: binding
Procedure: as §1, §2
Some phage isolated by either of the above methods (a or b) bound DNA in the absence of ligand but could be displaced by concentrations of distamycin A at 10 μM and actinomycin D at 1 μM. The distamycin sensitive clone was selected using the DNA target AAAAAGCGGAAAAA (SEQ ID NO:48) and its helices were sequenced as: […]

Question: With `Cc1c2oc3c(C)ccc(C(=O)N[C@@H]4C(=O)N[C@H](C(C)C)C(=O)N5CCC[C@H]5C(=O)N(C)CC(=O)N(C)[C@@H](C(C)C)C(=O)O[C@@H]4C)c3nc-2c(C(=O)N[C@@H]2C(=O)N[C@H](C(C)C)C(=O)N3CCC[C@H]3C(=O)N(C)CC(=O)N(C)[C@@H](C(C)C)C(=O)O[C@@H]2C)c(N)c1=O` [actinomycin D] (I: T[dV]P[Sar][NMeV] / II: T[dV]P[Sar][NMeV]; ester I:1-I:C, II:1-II:C; linker I:N-II:N via Actinocin(9to1)) as the compound, how does the “effect of ligand on phage binding to specific DNA sequence” value (DNA target AGCTTGGCG; FIG. 6) read?
Answer: dissociated from the DNA

Question: And the “ligand concentration that displaces DNA-bound phage” value (DNA target AGCTTGGCG; actinomycin D sensitive clone)?
Answer: 1 µM

Question: Which results are given for `Cn1cc(NC(=O)c2cc(NC(=O)c3cc(NC=O)cn3C)cn2C)cc1C(=O)NCCC(=N)N` [distamycin A]?
Answer: CAT gene expression [1]: CAT expression is observed; ligand concentration at which phage retention is close to background level (DNA sequence AAAAAGGCG): ≤ 10^−9 M; effect of ligand on phage binding to specific DNA sequence ([2]; FIG. 6): dissociated from the DNA; ligand concentration that displaces DNA-bound phage ([2]; distamycin sensitive clone): 10 µM
